Experimental data: patent publication US20170002011A1, “BENZENE SULFONAMIDES AS CCR9 INHIBITORS” (NORGINE B.V., priority 2013, published 2017)

Tests used:
CCR9 [1] = molecular target: T1, CCR9 (Homo sapiens, UniProt P51686); test: FLIPR calcium flux assay using hCCR9 over expressed cells (TECK stimulation); format: cell-based; design: expressed in transfected cells; host or cells: Chem-1 cells overexpressing hCCR9; conditions: Chem1-hCCR9 overexpressing cells; Ki determined from IC50 of TECK-induced intracellular calcium increase
T1 sequence (P51686 1-369): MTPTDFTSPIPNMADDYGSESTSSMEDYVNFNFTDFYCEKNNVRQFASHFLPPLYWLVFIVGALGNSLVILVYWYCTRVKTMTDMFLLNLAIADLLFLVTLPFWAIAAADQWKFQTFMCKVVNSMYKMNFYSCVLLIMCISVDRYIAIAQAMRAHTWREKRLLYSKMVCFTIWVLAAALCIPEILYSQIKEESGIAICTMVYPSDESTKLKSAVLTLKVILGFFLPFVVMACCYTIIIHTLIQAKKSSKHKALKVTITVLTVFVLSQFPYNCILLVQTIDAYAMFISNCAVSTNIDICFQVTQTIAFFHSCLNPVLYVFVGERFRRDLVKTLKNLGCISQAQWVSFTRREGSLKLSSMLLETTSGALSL
Method: Biological Activity: FLIPR Assay Using hCCR9 Over Expressed Cells
A calcium flux assay was used to determine the ability of the compounds to interfere with the binding between CCR9 and its chemokine ligand (TECK) in Cheml-hCCR9 overexpressing cells. hCCR9 overexpressing cells were seeded (25,000 cells/well) into black Poly-D-Lysine coated clear bottom 96-well plates (BD Biosciences, Cat #356640) and incubated overnight at 37° C./5% CO2 in a humidified incubator. Media was aspirated and cells washed twice with 100 μL assay buffer (1×HBSS, 20 mM HEPES) containing 2.5 mM Probenecid. A 0.3× Fluo-4 NW calcium dye was prepared in assay buffer containing 5 mM Probenecid and stored in the dark. Each well was loaded with 100 μL of 0.3× Fluo-4 NW calcium dye and incubated at 37° C./5% CO2 for 60 minutes and then at room temperature for 30 minutes. A half-log serially diluted concentration response curve was prepared at a 3× final assay concentration for each compound (10 μM−0.1 nM final assay concentration) and 50 μL of the compound then transferred to the cells (150 μL final volume) for 60 minutes prior to stimulation (30 minutes at 37° C./5% CO2 and 30 minutes at room temperature). TECK was diluted to 4× its ECso in assay buffer (containing 0.1% [w/v] bovine serum albumin[BSA]) and 50 μL dispensed through the fluorometric imaging plate reader (FLIPR) instrument to stimulate the cells (200 μL final volume). The increase in intracellular calcium levels was measured with the FLIPR instrument. The potency of the compound as a CCR9 antagonist was calculated as an IC50 using GraphPad Prism software (variable slope four parameter). The Ki of the compound was determined from the IC50 values using the following equation.
(§1) Ki calculation: IC50/1+(Agonist (TECK) conc. used in assay/EC50 of agonist (TECK) generated on day of experiment)

CCR9 [2] = molecular target: T1, CCR9; test: FLIPR calcium flux assay using MOLT4 cells (TECK stimulation); format: cell-based; design: endogenous in cells; host or cells: MOLT4 (human T-cell line); conditions: MOLT4 cells (a human T-cell line); Ki determined from IC50 of TECK-induced intracellular calcium increase
Method: Biological Activity: FLIPR Assay Using MOLT4 Cells
A calcium flux assay was used to determine the ability of the compounds to interfere with the binding between CCR9 and its chemokine ligand (TECK) in MOLT4 cells (a human T-cell line). MOLT4 cells were seeded (100,000 cells/well) in coming cell culture plates (Cat #3603) in assay buffer (lx HBSS, 20 mM HEPES) containing 2.5 mM Probenecid. The plate was centrifuged at 1200 rpm for 3 minutes and incubated at 37° C./5% CO2 for 2 hours. A 0.3× Fluo-4 NW calcium dye was prepared in assay buffer containing 5 mM Probenecid and stored in the dark. Each well was loaded with 25 μL of 0.3× Fluo-4 NW calcium dye and incubated at 37 C/5% CO2 for 60 minutes and then at room temperature for 30 minutes. A half-log serially diluted concentration response curve was prepared at a 4× concentration for each (10 μM-0.1 nM final assay concentration) and 25 μL of the compound then transferred to the cells (100 μL final volume) for 60 minutes prior to stimulation (30 minutes at 37° C./5% CO2 and 30 minutes at room temperature). TECK was diluted to 5× its EC50 in assay buffer (containing 0.1% [w/v] bovine serum albumin [BSA]) and 25 μL dispensed through the FLIPR instrument to stimulate the cells (125 μL final volume). The increased in intracellular calcium levels was measured with the FLIPR instrument. The potency of the compound as CCR9 antagonist was calculated as an IC50 using GraphPad Prism software (variable slope four parameter). The Ki of the compound was determined from the IC50 values using the following equation.
as §1

Row | Ki (CCR9 [1]) [µM] | Ki (CCR9 [2]) [µM] | SMILES
1 | 1.95 | 0.703 | CC(C)(C)c1ccc(S(=O)(=O)Nc2ccnc3cc(C4CC4)nn23)cc1 [Compound 37, 4-(tert-butyl)-N-(2-cyclopropylpyrazolo[1,5-a]pyrimidin-7-yl)benzenesulfonamide]
2 | 1.52 | 0.295 | CC(C)c1cc2nccc(NS(=O)(=O)c3ccc(C(C)(C)C)cc3)n2n1 [Compound 79, 4-(tert-butyl)-N-(2-isopropylpyrazolo[1,5-a]pyrimidin-7-yl)benzenesulfonamide]
3 | 1.8 | 0.111 | CCc1cc2nccc(NS(=O)(=O)c3ccc(C(C)(C)C)cc3)n2n1 [Compound 85, 4-(tert-butyl)-N-(2-ethylpyrazolo[1,5-a]pyrimidin-7-yl)benzenesulfonamide]
4 | 0.181 | 0.162 | Cc1cc2c(Cl)ccc(NS(=O)(=O)c3ccc(C(C)(C)C)cc3)n2n1 [Compound 94, 4-(tert-butyl)-N-(4-chloro-2-methylpyrazolo[1,5-a]pyridin-7-yl)benzenesulfonamide]
5 | 0.11 | 0.002 | Cc1cc2c(C#N)ccc(NS(=O)(=O)c3ccc(C(C)(C)C)cc3)n2n1 [Compound 95, 4-(tert-butyl)-N-(4-cyano-2-methylpyrazolo[1,5-a]pyridin-7-yl)benzene sulfonamide]
6 | 0.512 | 0.109 | Cc1cc2c(Cl)ccc(NS(=O)(=O)c3ccc(C(C)(C)C#N)cc3)n2n1 [Compound 98]
7 | 0.056 | 0.285 | CC(C)(C)c1ccc(S(=O)(=O)Nc2ccc(Cl)c3cc(C4CC4)nn23)cc1 [Compound 105]
8 | 0.394 | 0.115 | CC(C)(C)c1ccc(S(=O)(=O)Nc2ccc(Cl)c3cc(-c4cccnc4)nn23)cc1 [Compound 110, 4-(tert-butyl)-N-(4-chloro-2-(pyridin-3-yl)pyrazolo[1,5-a]pyridin-7-yl)benzenesulfonamide]
9 | 0.19 | 0.056 | CC(C)(C)c1ccc(S(=O)(=O)Nc2ccc(Cl)c3cc(-c4ccc[n+]([O-])c4)nn23)cc1 [Compound 111, 3-(7-((4-(tert-butyl)phenyl)sulfonamido)-4-chloropyrazolo[1,5-a]pyridin-2-yl)pyridine 1-oxide]
10 | 0.756 | 0.187 | O=S(=O)(Nc1ccc(Cl)c2cc(-c3cccnc3)nn12)c1ccc(C(F)(F)F)cc1 [Compound 113]
11 | 0.159 | 0.087 | CC(C)(C)c1ccc(S(=O)(=O)Nc2ccc(C#N)c3cc(-c4cccnc4)nn23)cc1 [Compound 149, 4-(tert-butyl)-N-(4-cyano-2-(pyridin-3-yl)pyrazolo[1,5-a]pyridin-7-yl)benzenesulfonamide]
12 | 0.125 | 0.041 | Cn1nccc1-c1cc2c(C#N)ccc(NS(=O)(=O)c3ccc(C(C)(C)C)cc3)n2n1 [Compound 152]
13 | 0.107 | 0.051 | CC(C)(C)c1ccc(S(=O)(=O)Nc2ccc(C#N)c3cc(-c4cncc(F)c4)nn23)cc1 [Compound 156, 4-(tert-butyl)-N-(4-cyano-2-(5-fluoropyridin-3-yl)pyrazolo[1,5-a]pyridin-7-yl)benzenesulfonamide]
14 | 0.186 | 0.048 | Cc1cc(-c2cc3c(C#N)ccc(NS(=O)(=O)c4ccc(C(C)(C)C)cc4)n3n2)n(C)n1 [Compound 158]
15 | 0.136 | 0.096 | Cn1ccc(-c2cc3c(C#N)ccc(NS(=O)(=O)c4ccc(C(C)(C)C)cc4)n3n2)c1 [Compound 159]
16 | 0.127 | 0.062 | COc1cncc(-c2cc3c(C#N)ccc(NS(=O)(=O)c4ccc(C(C)(C)C)cc4)n3n2)c1 [Compound 161]
17 | 0.112 | 0.034 | CC(C)(C)c1ccc(S(=O)(=O)Nc2ccc(C#N)c3cc(-c4cn[nH]c4)nn23)cc1 [Compound 164, 4-(tert-butyl)-N-(4-cyano-2-(1H-pyrazol-4-yl)pyrazolo[1,5-a]pyridin-7-yl)benzenesulfonamide]

Row | Ki (CCR9 [1]) [µM] | Ki (CCR9 [2]) [µM] | SMILES
18 | 0.343 | 0.164 | CC(C)(C)c1ccc(S(=O)(=O)Nc2ccc(Cl)c3cc(-c4cnco4)nn23)cc1 [Compound 169, 4-(tert-butyl)-N-(4-chloro-2-(oxazol-5-yl)pyrazolo[1,5-a]pyridin-7-yl)benzenesulfonamide]
19 | 0.129 | 0.079 | CC(C)(C)c1ccc(S(=O)(=O)Nc2ccc(Cl)c3cc(-c4ccsc4C(=O)O)nn23)cc1 [Compound 172, 3-(7-((4-(tert-butyl)phenyl)sulfonamido)-4-chloropyrazolo[1,5-a]pyridin-2-yl)thiophene-2-carboxylic acid]
20 | 0.133 | 0.03 | CC(C)(C)c1ccc(S(=O)(=O)Nc2c(C#N)ccc3cc(-c4cccnc4)nn23)cc1 [Compound 180, 4-(tert-butyl)-N-(6-cyano-2-(pyridin-3-yl)pyrazolo[1,5-a]pyridin-7-yl)benzenesulfonamide]
21 | 0.168 | 0.08 | Cn1cnc(-c2cc3c(Cl)ccc(NS(=O)(=O)c4ccc(C(C)(C)C)cc4)n3n2)c1 [Compound 182]
22 | 0.094 | 0.095 | Cn1ccc(-c2cc3c(Cl)ccc(NS(=O)(=O)c4ccc(C(C)(C)C)cc4)n3n2)n1 [Compound 183]
23 | 0.017 | 0.022 | Cn1ccc(-c2cc3c(C#N)ccc(NS(=O)(=O)c4ccc(C(C)(C)C)cc4)n3n2)n1 [Compound 184]
24 | 0.067 | 0.031 | CC(C)n1cc(-c2cc3c(Cl)ccc(NS(=O)(=O)c4ccc(C(C)(C)C)cc4)n3n2)cn1 [Compound 186]
25 | 0.022 | 0.01 | CCn1cc(-c2cc3c(C#N)ccc(NS(=O)(=O)c4ccc(C(C)(C)C)cc4)n3n2)cn1 [Compound 189]
26 | 0.114 | 0.054 | Cc1c(-c2cc3c(C#N)ccc(NS(=O)(=O)c4ccc(C(C)(C)C)cc4)n3n2)cnn1C [Compound 190]
27 | 0.009 | 0.019 | CC(C)n1cc(-c2cc3c(C#N)ccc(NS(=O)(=O)c4ccc(C(C)(C)C)cc4)n3n2)cn1 [Compound 191]
28 | 0.183 | 0.161 | Cn1nnc(-c2cc3c(Cl)ccc(NS(=O)(=O)c4ccc(C(C)(C)C)cc4)n3n2)n1 [Compound 192]
29 | 0.054 | 0.026 | COc1ccc(-c2cc3c(C#N)ccc(NS(=O)(=O)c4ccc(C(C)(C)C)cc4)n3n2)cn1 [Compound 198]
30 | 0.063 | 0.105 | Cc1cncc(-c2cc3c(Cl)ccc(NS(=O)(=O)c4ccc(C(C)(C)C)cc4)n3n2)c1 [Compound 199]
31 | 0.012 | 0.02 | Cc1cncc(-c2cc3c(C#N)ccc(NS(=O)(=O)c4ccc(C(C)(C)C)cc4)n3n2)c1 [Compound 200]
32 | 0.127 | 0.107 | COc1ncccc1-c1cc2c(C#N)ccc(NS(=O)(=O)c3ccc(C(C)(C)C)cc3)n2n1 [Compound 202]
33 | 0.149 | 0.085 | Cc1ncccc1-c1cc2c(Cl)ccc(NS(=O)(=O)c3ccc(C(C)(C)C)cc3)n2n1 [Compound 203]
